# Reference: patent publication US10287311B2, “Modified fluorinated nucleoside analogues” (priority 2003, dated 2019)
# Where two headings read alike, the source gives them in different places.
# What was measured:
# West Nile virus = assay: Antiviral activity, West Nile virus in Vero cells; format: cell-based; conditions: for EC50: West Nile virus, West Nile, Vero
# Dengue Type 2 = assay: Antiviral activity, Dengue Type 2 in Vero cells; format: cell-based, Dengue virus; conditions: for EC50: Dengue Type 2, Vero
# Yellow Fever virus = format: cell-based
# Influenza B = assay: microbe, parasite or virus in culture; format: cell-based; conditions: MDCK
# Rhinovirus Type 2 = assay: Antiviral activity, Rhinovirus Type 2 in KB cells; format: cell-based; conditions: for EC50: Enterovirus, Rhinovirus Type 2, KB
# VEE = assay: organism not typed; format: cell-based; conditions: Vero
# SARSCoV = assay: organism not typed; format: cell-based; conditions: Vero
# BVDV = assay: (BVDV) yield reduction assay; format: cell-based, bovine viral diarrhea virus; conditions: for EC90: Bovine viral diarrhea virus isolates and strains
# Method: Madin-Darby Bovine Kidney (MDBK) cells were grown in Dulbecco's modified eagle medium supplemented with 10% horse serum and 100 μg/ml penicillin-streptomycin. Cells were seeded in a 96-well plate at 5×10^3 cells/well and incubated for 72h at 37° C. in a humidified 5% CO2 atmosphere. Cells were infected with either cytopathic (NADL strain) or noncytopathic (SD-1 strain) BVDV at a virus dilution of 10-2 and incubated for 45 min. Cell monolayers were washed three times with medium. Fresh medium-containing test compounds in dose response concentrations or ribavirin, as a positive control, were added to cultures and medium containing no drug was added to the no-drug controls. After 72h incubation, supernatant was collected and viral RNA was extracted using the QIAmp Viral RNA Mini Kit (Qiagen, CA). Viral load was determined by Q-RT-PCR using primers specific for either NADL or SD-1 (1).
# RSV = assay: Antiviral activity, RSV; format: cell-based; conditions: human respiratory syncytial virus
# HIV = assay: microbe, parasite or virus in culture; format: cell-based
# HBV = assay: Antiviral activity, HBV; format: cell-based; conditions: for EC90: Hepatitis B virus, HBV
# Coronavirus 229E = assay: Antiviral activity, Coronavirus 229E; format: cell-based
# [1] = Cytotoxicity assay (MTS), all cell lines tested; format: cell-based; conditions: human, bovine, African green monkey, Clone A, Huh7, HepG2, MDBK, PBM, CEM, Vero and MRC-5 cells; summary in text over all cell lines
# Method: (§1) 50 μl of 2× drug dilutions were added per well in a 96 well plate. Final concentrations of drug ranged from 1 to 100 μM. A “no drug” (media only) control was used to determine the minimum absorbance values and a “cells+media only” control was used for maximum absorbance value. A solvent control was also used. Cells were then added (PBM: 5×10^4 cells/well; CEM: 2.5×10^3 cells/well; Vero, HepG2, Huh-7, and Clone A: 5×10^3 cells/well) and incubated at 37° C. in a humidified 5% CO2 atmosphere for 3-5 days (PBM: 5 days; CEM: 3 days, all others: 4 days). After incubation, 20 μl of MTS dye was added from Cell Titer Aqueous One Solution Cell Proliferation Assay to each well and the plate was re-incubated for 2-4 hours. The absorbance (490 nm) was then read on an ELISA plate reader using the media only/no cell wells as blanks. Percent inhibition was found and used to calculate the CC50.
# In contrast is the relative toxicity of 2′-C-methyladenosine.
# [2] = Cytotoxicity assay (MTS), CloneA; format: cell-based; conditions: human, Clone A cells
# Method: as §1
# [3] = Cytotoxicity assay (MTS), Huh7; format: cell-based; conditions: human, Huh7 cells
# Method: as §1
# [4] = Cytotoxicity assay (MTS), HepG2; format: cell-based; conditions: human, HepG2 cells
# Method: as §1
# [5] = Cytotoxicity assay (MTS), MDBK; format: cell-based; conditions: bovine, MDBK cells
# [6] = Cytotoxicity assay (MTS), PBM; format: cell-based; conditions: PBM cells
# Method: as §1
# [7] = Cytotoxicity assay (MTS), CEM; format: cell-based; conditions: human, CEM cells
# Method: as §1
# [8] = Cytotoxicity assay (MTS), Vero; format: cell-based; conditions: African green monkey, Vero cells
# Method: as §1
# [9] = Cytotoxicity assay (MTS), MRC-5; format: cell-based; conditions: human, MRC-5 cells; MRC-5, MTS assay
# HepG2 cells = assay: Mitochondria toxicity assay; format: cell-based; conditions: 7 days; for IC50: Homo sapiens, 168 h, read-out: mtDNA Synthesis (IC50)
# Method: Fifty microliters of 2× drug dilutions were added per well in a 96 well plate. […] Ribosomal DNA levels were used to determine specific toxicity to mitochondria or generally cytotoxicity. HepG2 cells (5,000 cells/well at 50 μl) were added to the plate. The plate was incubated at 37° C. in a humidified 5% CO2 atmosphere for 7 days. After incubation, the supernatant was removed and stored for lactic acid quantification, and total DNA was extracted from cells as described in the RNeasy 96 handbook (February 1999), pages 22-23. No DNA digestions were performed, therefore total RNA and DNA were extracted. The extracted DNA was amplified and the change in mitochondrial DNA and ribosomal DNA for each sample was determined. The fold difference in mitochondrial DNA normalized for ribosomal DNA relative to control was calculated. Lactic acid quantification was performed by the D-Lactic Acid/L-Lactic acid test kit (Boehringer Mannheim/R-Biopharm/Roche). The total amount of lactic acid produced for each sample was found as well as the fold change in lactic acid production (% of lactic acid/% of rDNA) as described in the manufacturers instructions.
# [10] = Pharmacokinetics in Rhesus monkeys; format: in vivo; conditions: single oral dose 33.3 mg/kg, Mean ± SD, preliminary
# Method: FIG. 3 depicts the pharmacokinetics of β-D-(2′R)-2′-deoxy-2′-fluoro-2′-C-methylcytidine in Rhesus monkeys given a single dose (33.3 mg/kg) oral or intravenous dose of β-D-(2′R)-2′-deoxy-2′-fluoro-2′-C-methylcytidine.
# [11] = system: Human bone marrow cells, BFU-E; assay: Bone marrow toxicity assay, BFU-E; format: cell-based
# Method: (§2) The culture assays for CFU-GM and BFU-E are performed using a bilayer soft agar or methylcellulose method. Drugs are diluted in tissue culture medium and filtered. After 14 to 18 days at 37° C. in a humidified atmosphere of 5% CO2 in air, colonies of greater than 50 cells are counted using an inverted microscope. The results are presented as the percent inhibition of colony formation in the presence of drug compared to solvent control cultures.
# [12] = system: Human bone marrow cells, CFU-GM; assay: Bone marrow toxicity assay, CFU-GM; format: cell-based
# Method: as §2
# in vitro [13] = conditions: African green monkey
# in vitro [14] = conditions: human
# replicon HCV RNA = assay: HCV replicon assay (clone not specified)
# [15] = Cytotoxicity (CPE, Neutral Red) in KB cells of the antiviral tests; conditions: human
# [16] = Cytotoxicity (CPE, Neutral Red) in MDCK cells of the antiviral tests; conditions: dog, MDCK cells
# MDCK cells = assay: as above; conditions: MDCK, Influenza B test
# [17] = target: HCV 1b NS5B polymerase, Wild-Type NS5B (Hepatitis C virus genotype 1b, UniProt Q9WMX2)
# Sequence of HCV 1b NS5B polymerase, Wild-Type NS5B (Q9WMX2 2420-3010): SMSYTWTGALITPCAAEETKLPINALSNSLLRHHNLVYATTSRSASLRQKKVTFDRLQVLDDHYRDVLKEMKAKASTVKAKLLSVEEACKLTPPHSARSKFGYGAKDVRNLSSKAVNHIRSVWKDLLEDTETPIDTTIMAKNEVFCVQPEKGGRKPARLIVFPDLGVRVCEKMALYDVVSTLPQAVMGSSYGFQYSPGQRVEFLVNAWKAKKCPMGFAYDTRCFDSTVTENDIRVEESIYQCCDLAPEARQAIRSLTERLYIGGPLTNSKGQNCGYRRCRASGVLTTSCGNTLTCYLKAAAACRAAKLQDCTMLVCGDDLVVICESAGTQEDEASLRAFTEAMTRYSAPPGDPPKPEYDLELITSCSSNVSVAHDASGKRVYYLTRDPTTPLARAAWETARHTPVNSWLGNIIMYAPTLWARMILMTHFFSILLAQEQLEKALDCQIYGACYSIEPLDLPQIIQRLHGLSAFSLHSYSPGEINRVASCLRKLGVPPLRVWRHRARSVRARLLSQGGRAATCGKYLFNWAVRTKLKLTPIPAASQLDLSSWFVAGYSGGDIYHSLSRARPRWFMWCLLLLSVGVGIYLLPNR
# [18] = system: serum amino transferase levels; conditions: Gary L. Davis, 2000; cited from earlier work
# HCV replicon system = conditions: Stuyver et al. 2003; cited from earlier work
# [19] = Neutral Red, read-out: EC50, NR
# [20] = Hepatitis C virus, read-out: EC90 values, range for the replicon clones, range over replicon clones of Table 1
smiles,measurement,setting,value
C[C@@]1(F)[C@H](O)[C@@H](CO)O[C@H]1n1ccc(N)nc1=O,activity against West Nile virus (in words),West Nile virus,shows activity
same,EC50,"West Nile virus; NR = Neutral Red, read-out: EC50, NR",12 µM
same,EC50,"West Nile virus; read-out: EC50, CPE",32 µM
same,activity against Dengue virus (in words),Dengue Type 2,shows activity
same,EC50,"Dengue Type 2; read-out: EC50, CPE",55 µM
same,EC50,"Dengue Type 2; Dengue virus, Vero, Neutral Red, read-out: EC50, NR",> 100 µM
same,EC50,"Dengue Type 2; Dengue virus, Vero, read-out: EC50, CPE",32 µM
same,activity against Yellow Fever virus (in words),Yellow Fever virus,shows activity
same,EC50,Influenza B; [19],> 100 µM
same,EC50,"Influenza B; read-out: EC50, CPE",> 100 µM
same,activity against Rhinovirus (in words),Rhinovirus Type 2,shows activity
same,EC50,Rhinovirus Type 2; [19],20 µM
same,EC50,"Rhinovirus Type 2; read-out: EC50, CPE",25 µM
same,EC50,"VEE; read-out: EC50, CPE",> 100 µM
same,EC50,"VEE; read-out: EC50, NR",> 100 µM
same,EC50,"SARSCoV; read-out: EC50, CPE",> 100 µM
same,EC50,"SARSCoV; read-out: EC50, NR",> 100 µM
same,activity on HCV surrogate model BVDV (in words),BVDV,lack of activity
same,EC90,BVDV; BVDVcp,> 100 µM
same,EC90,BVDV; BVDVncp,> 22 µM
same,EC90,RSV,> 100 µM
same,activity on HIV (in words),HIV,lack of activity
same,EC90,"HIV; Human immunodeficiency virus 1, HIV",> 100 µM
same,activity on HBV (in words),HBV,lack of activity
same,EC90,HBV,> 10 µM
same,activity on Corona virus (in words),Coronavirus 229E,lack of activity
same,EC90,Coronavirus 229E; Human coronavirus 229E,> 100 µM
same,CC50,[1],75 to 100 µM
same,CC50 at 4 days,[2],> 100 µM
same,CC50 at 4 days,[3],> 100 µM
same,CC50 at 4 days,[4],75 µM
same,CC50 at 4 days,[5],> 100 µM
same,CC50 at 5 days,[6],> 100 µM
same,CC50 at 3 days,[7],> 100 µM
same,CC50 at 4 days,[8],> 100 µM
same,CC50 at 4 days,[9],> 100 µM
same,Lactic Acid Increase,HepG2 cells,No effect ≥ 33 μM
same,IC50,HepG2 cells,> 25 µM
same,AUC(0-t),"[10]; rhesus monkey, in vivo",44.2 ± 22.2 µM·h
same,half-life,"[10]; rhesus monkey, in vivo, read-out: T ½ (converted)",3.9 ± 0.1 h
same,Bioavailability,[10],21 ± 11 F %
same,Cmax,[10],9.6 ± 2.7 µM
same,Tmax,[10],2 ± 1 h
same,IC50,[11]; Bone marrow cell,98.2 µM
same,IC50,[12]; CFU-GM,93.9 µM
same,CC50,Vero cells; African green monkey,> 100 µM
same,CC50,"Vero cells; read-out: CC50, CPE, Vero, SARSCoV test",> 100 µM
same,CC50,"Vero cells; read-out: CC50, NR, Vero, SARSCoV test, Neutral Red",> 100 µM
same,CC50,"Vero cells; read-out: CC50, NR, Vero, VEE test, Neutral Red",> 100 µM
same,deaths during the 30-day study,"female Swiss mice; female Swiss mice, intraperitoneal, days 0 to 5, 0, 3.3, 10, 33, 100 mg/kg",no mice died
same,toxicity observed in the mice,"female Swiss mice; mouse, in vivo",No significant toxicity
same,CC50,in vitro [13],> 100 µM
same,CC50,in vitro [14],> 100 µM
same,EC90,"replicon HCV RNA; Hepatitis C virus, 96 h, read-out: EC90 (1-log reduction of replicon RNA), 4-days incubation / 96 hours, FIG. 1A (converted)",~2.5 µM
same,EC90,replicon HCV RNA; [20],1.6 to 4.6 µM
same,EC90,"replicon HCV RNA; read-out: EC90 (1-log reduction of replicon RNA) (converted), 4-days incubation / 96 hours, FIG. 1A",5 µM
same,CC50,[15],> 100 µM
same,CC50,[16],> 100 µM
same,CC50,"MDCK cells; read-out: CC50, CPE",> 100 µM
same,CC50,"MDCK cells; read-out: CC50, NR, Neutral Red",> 100 µM
C[C@@]1(F)[C@H](O)[C@@H](COP(=O)(O)OP(=O)(O)OP(=O)(O)O)O[C@H]1n1ccc(N)nc1=O,IC50,"[17]; IC50, Wild-Type NS5B, batch 1",1.7 ± 0.4 µM
same,IC50,"[17]; IC50, Wild-Type NS5B, batch 2 and 3",7.7 ± 1.2 µM
same,IC50,"[17]; inhibitory concentration 50%, range, NS5B polymerase assay",1.7 to 7.7 µM
C[C@@]1(O)[C@H](O)[C@@H](CO)O[C@H]1n1cnc2c(N)ncnc21 [2′-C-methyladenosine],activity on HCV surrogate model BVDV (in words),BVDV,greater activity
same,EC90,BVDV; BVDVcp,1.5 µM
same,EC90,BVDV; BVDVncp,1.2 µM
same,EC90,RSV,> 100 µM
same,CC50 at 4 days,[2],37 µM
same,CC50 at 4 days,[3],30 µM
same,CC50 at 4 days,[4],58 µM
C[C@@]1(O)[C@H](O)[C@@H](CO)O[C@H]1n1ccc(N)nc1=O [2′-C-methylcytidine],activity on HCV surrogate model BVDV (in words),BVDV,greater activity
same,EC90,BVDV; BVDVcp,2 µM
same,EC90,BVDV; BVDVncp,0.5 µM
same,EC90,RSV,> 100 µM
same,EC90,HBV,> 10 µM
same,CC50,[1],75 to 100 µM
same,CC50 at 4 days,[2],> 100 µM
same,CC50 at 4 days,[3],> 100 µM
same,CC50 at 4 days,[4],> 100 µM
same,CC50 at 4 days,[5],> 100 µM
same,Lactic Acid Increase,HepG2 cells,No effect ≥ 33 μM
same,IC50,HepG2 cells,> 25 µM
same,IC50,[11]; Bone marrow cell,20.1 µM
same,IC50,[12]; CFU-GM,13.2 µM
same,EC90,replicon HCV RNA; [20],6.6 to 37.4 µM
Cc1cn([C@H]2C[C@H](N=[N+]=[N-])[C@@H](CO)O2)c(=O)[nH]c1=O [AZT],IC50,[11],0.08 µM
same,IC50,[12],0.95 µM
"NC(=O)c1ncn([C@@H]2O[C@H](CO)[C@@H](O)[C@H]2O)n1 [Ribavirin, 1-β-D-ribofuranosyl-1-1,2,4-triazole-3-carboxamide]",patients with serum amino transferase levels reduced to normal,[18],40%
same,specific anti-HCV activity in the HCV replicon system,HCV replicon system,does not have specific anti-HCV activity
